Measurements reported in patent US20260184663A1, “INDENE COMPOUNDS, PHARMACEUTICAL COMPOSITIONS THEREOF, AND THEIR THERAPEUTIC APPLICATIONS” (NucMito Pharmaceuticals co. Ltd., priority 2022, published 2026).

Legend:
Format in all cases: cell-based
[1] = test system: A549 (lung adenocarcinoma); experiment: Antiproliferative activity (CCK-8 cell viability), A549; conditions: Homo sapiens, 72 h; for inhibition at 3.3 µM: Compound concentration: 3.3 μM; for inhibition at 3.3 µM / inhibition at 10 µM: read-out: Antiproliferative activity in cancerous cells, A549 (inhibition of cell growth); for inhibition at 10 µM: Compound concentration: 10 μM
In short: (§1)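 Cells grown in DMEM (HepG2, SW480), MEM (HeLa) or F-12K (A549), each with 10% FBS, then exposed to compound at 3.3, 10 or 30 μM for 72 h at 37 °C. CCK-8 absorbance at 450 nm; viability expressed as percent of DMSO-treated cells, graded as growth inhibition bands.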

HeLa (cervical cancer) = experiment: Antiproliferative activity (CCK-8 cell viability), HeLa; conditions: Homo sapiens, 72 h, read-out: Antiproliferative activity in cancerous cells, HELA (inhibition of cell growth); for inhibition at 3.3 µM: Compound concentration: 3.3 μM; for inhibition at 10 µM: Compound concentration: 10 μM
In short: as §1

HepG2 (liver cancer) = experiment: Antiproliferative activity (CCK-8 cell viability), HepG2; conditions: Homo sapiens, 72 h; for inhibition at 3.3 µM: Compound concentration: 3.3 μM; for inhibition at 3.3 µM / inhibition at 10 µM: read-out: Antiproliferative activity in cancerous cells, HepG2 (inhibition of cell growth); for inhibition at 10 µM: Compound concentration: 10 μM
In short: as §1

[2] = test system: B16F10 (malignant melanoma); experiment: Antiproliferative activity (CCK-8 cell viability), B16F10; conditions: Mus musculus, 72 h; for inhibition at 3.3 µM: B16-F10, Compound concentration: 3.3 μM; for inhibition at 3.3 µM / inhibition at 10 µM: read-out: Antiproliferative activity in cancerous cells, B16F10 (inhibition of cell growth); for inhibition at 10 µM: B16-F10, Compound concentration: 10 μM
In short: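 B16F10 melanoma cells grown in DMEM with 10% FBS were plated in 96-well plates at 2,000-5,000 cells/well. After attachment they were exposed to compound in medium for 72 h at 37° C. CCK-8 solution (10 μL) was then added, and after 4 h at 37° C absorbance was read at 450 nm.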

SW480 (colon cancer) = experiment: Antiproliferative activity (CCK-8 cell viability), SW480; conditions: Homo sapiens, 72 h; for inhibition at 3.3 µM: Compound concentration: 3.3 μM; for inhibition at 3.3 µM / inhibition at 10 µM: read-out: Antiproliferative activity in cancerous cells, SW480 (inhibition of cell growth); for inhibition at 10 µM: Compound concentration: 10 μM
In short: as §1

[3] = test system: A431 (epidermoid carcinoma); experiment: Antiproliferative activity (CCK-8 cell viability), A431; conditions: Homo sapiens, 72 h; for inhibition at 3.3 µM: A-431, Compound concentration: 3.3 μM; for inhibition at 3.3 µM / inhibition at 10 µM: read-out: Antiproliferative activity in cancerous cells, A431 (inhibition of cell growth); for inhibition at 10 µM: A-431, Compound concentration: 10 μM
In short: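 A431 epidermoid carcinoma cells grown in DMEM with 10% FBS were plated at 2,000-5,000 cells/well in 96-well plates. After attachment they were exposed to compound at 3.3 μM, 10 μM, or 30 μM for 72 h at 37° C. Viability was then assessed by CCK-8 against DMSO vehicle-treated wells.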

[4] = test system: MDA-MB-231 (breast cancer); experiment: Antiproliferative activity (CCK-8 cell viability), MDA-MB-231; conditions: Homo sapiens, 72 h, read-out: Antiproliferative activity in cancerous cells, MDA-MB-231 (inhibition of cell growth); for inhibition at 3.3 µM: Compound concentration: 3.3 μM; for inhibition at 10 µM: Compound concentration: 10 μM
In short: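 MDA-MB-231 breast cancer cells, grown in DMEM with 10% FBS, were plated in 96-well plates at 2,000-5,000 cells/well. Once attached, they were exposed to compound and incubated at 37° C. for 72 h. Viability was then measured with CCK-8 (10 μL per well, 4 h at 37° C.) by absorbance at 450 nm, relative to DMSO vehicle wells.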

[5] = test system: alpha-smooth muscle actin (α-SMA); experiment: Inhibition of TGF-β induced expression of alpha-smooth muscle actin (α-SMA) in CFSC cells (western blot); conditions: compound at 10 μM, TGF-β (10 ng/mL), 24 hours, band intensity vs TGF-β only
In short: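 CFSC hepatic stellate cells in serum-free DMEM treated 24 h at 37 °C with compound at 10 μM plus TGF-β (10 ng/mL). α-SMA measured by Western blot with β-actin, ECL detection, densitometry. Percent inhibition is decrease in band intensity versus TGF-β-only cells.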

## O=C(O)CC1=C(C2CCc3ccc(F)cc32)/C(=C/c2ccc(Oc3ccc(F)cc3)cc2)c2ccc(F)cc21 (centres unmarked) [C12, (Z)-2-(5′,6-Difluoro-1′-(4-(4-fluorophenoxy)benzylidene)-2,3-dihydro-1H,1′H-[1,2′-biinden]-3′-yl)acetic acid]
[1]
  inhibition at 3.3 µM: ≥ 50%
  inhibition at 10 µM: ≥ 50%
HeLa (cervical cancer)
  inhibition at 3.3 µM: ≥ 50%
  inhibition at 10 µM: ≥ 50%
HepG2 (liver cancer)
  inhibition at 3.3 µM: ≥ 50%
  inhibition at 10 µM: ≥ 50%
[2]
  inhibition at 3.3 µM: ≥ 50%
  inhibition at 10 µM: ≥ 50%
SW480 (colon cancer)
  inhibition at 3.3 µM: ≥ 50%
  inhibition at 10 µM: ≥ 50%
[3]
  inhibition at 3.3 µM: ≥ 50%
  inhibition at 10 µM: ≥ 50%
[4]
  inhibition at 3.3 µM: ≥ 50%
  inhibition at 10 µM: ≥ 50%
[5]
  inhibition at 10 µM: > 80%

## O=C(O)CC1=C(Cc2ccc(C(F)(F)F)cc2)/C(=C/c2cccc(Oc3ccccc3)c2)c2ccc(F)cc21 [C13, (Z)-2-(5-Fluoro-1-(3-phenoxybenzylidene)-2-(4-(trifluoromethyl)benzyl)-1H-inden-3-yl)acetic acid]
[1]
  inhibition at 3.3 µM: ≥ 50%
  inhibition at 10 µM: ≥ 50%
HeLa (cervical cancer)
  inhibition at 3.3 µM: ≥ 50%
  inhibition at 10 µM: ≥ 50%
HepG2 (liver cancer)
  inhibition at 3.3 µM: ≥ 50%
  inhibition at 10 µM: ≥ 50%
[2]
  inhibition at 3.3 µM: ≥ 50%
  inhibition at 10 µM: ≥ 50%
SW480 (colon cancer)
  inhibition at 3.3 µM: ≥ 50%
  inhibition at 10 µM: ≥ 50%
[3]
  inhibition at 3.3 µM: ≥ 50%
  inhibition at 10 µM: ≥ 50%
[4]
  inhibition at 3.3 µM: ≥ 50%
  inhibition at 10 µM: ≥ 50%
[5]
  inhibition at 10 µM: > 80%

## O=C(O)CC1=C(Cc2ccc(F)cc2)/C(=C/c2ccc(Oc3ccc(F)cc3)cc2)c2ccc(F)cc21 [C14, (Z)-2-(5-Fluoro-2-(4-fluorobenzyl)-1-(4-(4-fluorophenoxy)benzylidene)-1H-inden-3-yl)acetic acid]
[1]
  inhibition at 3.3 µM: < 30%
  inhibition at 10 µM: ≥ 50%
HeLa (cervical cancer)
  inhibition at 3.3 µM: ≥ 50%
  inhibition at 10 µM: ≥ 50%
HepG2 (liver cancer)
  inhibition at 3.3 µM: ≥ 50%
  inhibition at 10 µM: ≥ 50%
[2]
  inhibition at 3.3 µM: ≥ 50%
  inhibition at 10 µM: ≥ 50%
SW480 (colon cancer)
  inhibition at 3.3 µM: < 30%
  inhibition at 10 µM: ≥ 50%
[3]
  inhibition at 3.3 µM: ≥ 50%
  inhibition at 10 µM: ≥ 50%
[4]
  inhibition at 3.3 µM: ≥ 50%
  inhibition at 10 µM: ≥ 50%
[5]
  inhibition at 10 µM: > 80%

## O=C(O)CC1=C/C(=C/c2cccc(Oc3ccccc3)c2)c2cc(OCC(F)(F)F)ccc21 [C15, (Z)-2-(1-(3-Phenoxybenzylidene)-6-(2,2,2-trifluoroethoxy)-1H-inden-3-yl)acetic acid]
[1]
  inhibition at 3.3 µM: < 30%
  inhibition at 10 µM: < 30%
[1]; Compound concentration: 30 μM, read-out: Antiproliferative activity in cancerous cells, A549
  inhibition at 30 µM: < 30%
HeLa (cervical cancer)
  inhibition at 3.3 µM: < 30%
  inhibition at 10 µM: 30 to 50%
HepG2 (liver cancer)
  inhibition at 3.3 µM: < 30%
  inhibition at 10 µM: < 30%
HepG2 (liver cancer); Compound concentration: 30 μM, read-out: Antiproliferative activity in cancerous cells, HepG2
  inhibition at 30 µM: 30 to 50%
[2]
  inhibition at 3.3 µM: < 30%
  inhibition at 10 µM: < 30%
[2]; B16-F10, Compound concentration: 30 μM, read-out: Antiproliferative activity in cancerous cells, B16F10
  inhibition at 30 µM: 30 to 50%
SW480 (colon cancer)
  inhibition at 3.3 µM: < 30%
  inhibition at 10 µM: < 30%
SW480 (colon cancer); Compound concentration: 30 μM, read-out: Antiproliferative activity in cancerous cells, SW480
  inhibition at 30 µM: < 30%
[3]
  inhibition at 3.3 µM: < 30%
  inhibition at 10 µM: < 30%
[3]; A-431, Compound concentration: 30 μM, read-out: Antiproliferative activity in cancerous cells, A431
  inhibition at 30 µM: < 30%
[4]
  inhibition at 3.3 µM: 30 to 50%
  inhibition at 10 µM: ≥ 50%
[5]
  inhibition at 10 µM: < 30%

## CC1=C(CC(=O)O)c2ccc(F)cc2/C1=C\c1cccc(Oc2ccccc2)c1 [C16, (Z)-2-(6-Fluoro-2-methyl-1-(3-phenoxybenzylidene)-1H-inden-3-yl)acetic acid]
[1]
  inhibition at 3.3 µM: < 30%
  inhibition at 10 µM: 30 to 50%
HeLa (cervical cancer)
  inhibition at 3.3 µM: < 30%
  inhibition at 10 µM: < 30%
HepG2 (liver cancer)
  inhibition at 3.3 µM: ≥ 50%
  inhibition at 10 µM: ≥ 50%
[2]
  inhibition at 3.3 µM: < 30%
  inhibition at 10 µM: ≥ 50%
SW480 (colon cancer)
  inhibition at 3.3 µM: < 30%
  inhibition at 10 µM: < 30%
[3]
  inhibition at 3.3 µM: ≥ 50%
  inhibition at 10 µM: ≥ 50%
[4]
  inhibition at 3.3 µM: ≥ 50%
  inhibition at 10 µM: 30 to 50%
[5]
  inhibition at 10 µM: > 80%

## CC1=C(CC(=O)O)c2cc(C)ccc2/C1=C\c1cccc(Oc2ccccc2)c1 [C17, (Z)-2-(2,5-Dimethyl-1-(3-phenoxybenzylidene)-1H-inden-3-yl)acetic acid]
[1]
  inhibition at 3.3 µM: < 30%
  inhibition at 10 µM: ≥ 50%
HeLa (cervical cancer)
  inhibition at 3.3 µM: < 30%
  inhibition at 10 µM: 30 to 50%
HepG2 (liver cancer)
  inhibition at 3.3 µM: 30 to 50%
  inhibition at 10 µM: ≥ 50%
[2]
  inhibition at 3.3 µM: < 30%
  inhibition at 10 µM: < 30%
SW480 (colon cancer)
  inhibition at 3.3 µM: < 30%
  inhibition at 10 µM: < 30%
[3]
  inhibition at 3.3 µM: 30 to 50%
  inhibition at 10 µM: ≥ 50%
[4]
  inhibition at 3.3 µM: 30 to 50%
  inhibition at 10 µM: ≥ 50%
[5]
  inhibition at 10 µM: > 80%

## CCc1ccc2c(c1)C(CC(=O)O)=C(C)/C2=C/c1cccc(Oc2ccccc2)c1 [C18, (Z)-2-(5-Ethyl-2-methyl-1-(3-phenoxybenzylidene)-1H-inden-3-yl)acetic acid]
[1]
  inhibition at 3.3 µM: 30 to 50%
  inhibition at 10 µM: ≥ 50%
HeLa (cervical cancer)
  inhibition at 3.3 µM: < 30%
  inhibition at 10 µM: 30 to 50%
HepG2 (liver cancer)
  inhibition at 3.3 µM: 30 to 50%
  inhibition at 10 µM: ≥ 50%
[2]
  inhibition at 3.3 µM: ≥ 50%
  inhibition at 10 µM: ≥ 50%
SW480 (colon cancer)
  inhibition at 3.3 µM: ≥ 50%
  inhibition at 10 µM: ≥ 50%
[3]
  inhibition at 3.3 µM: ≥ 50%
  inhibition at 10 µM: ≥ 50%
[4]
  inhibition at 3.3 µM: 30 to 50%
  inhibition at 10 µM: ≥ 50%
[5]
  inhibition at 10 µM: < 30%

## CCC1=C(CC(=O)O)c2cc(F)ccc2/C1=C\c1cccc(Oc2ccccc2)c1 [C19, (Z)-2-(2-Ethyl-5-fluoro-1-(3-phenoxybenzylidene)-1H-inden-3-yl)acetic acid]
[1]
  inhibition at 3.3 µM: 30 to 50%
  inhibition at 10 µM: ≥ 50%
HeLa (cervical cancer)
  inhibition at 3.3 µM: 30 to 50%
  inhibition at 10 µM: ≥ 50%
HepG2 (liver cancer)
  inhibition at 3.3 µM: < 30%
  inhibition at 10 µM: 30 to 50%
[2]
  inhibition at 3.3 µM: < 30%
  inhibition at 10 µM: ≥ 50%
SW480 (colon cancer)
  inhibition at 3.3 µM: < 30%
  inhibition at 10 µM: < 30%
[3]
  inhibition at 3.3 µM: < 30%
  inhibition at 10 µM: ≥ 50%
[4]
  inhibition at 3.3 µM: ≥ 50%
  inhibition at 10 µM: ≥ 50%
[5]
  inhibition at 10 µM: > 80%

## O=C(O)CC1=C(CC2CCCC2)/C(=C/c2cccc(Oc3ccccc3)c2)c2ccc(F)cc21 [C20, (Z)-2-(2-(Cyclopentylmethyl)-5-fluoro-1-(3-phenoxybenzylidene)-1H-inden-3-yl)acetic acid]
[1]
  inhibition at 3.3 µM: 30 to 50%
  inhibition at 10 µM: ≥ 50%
HeLa (cervical cancer)
  inhibition at 3.3 µM: 30 to 50%
  inhibition at 10 µM: ≥ 50%
HepG2 (liver cancer)
  inhibition at 3.3 µM: < 30%
  inhibition at 10 µM: < 30%
[2]
  inhibition at 3.3 µM: ≥ 50%
  inhibition at 10 µM: ≥ 50%
SW480 (colon cancer)
  inhibition at 3.3 µM: ≥ 50%
  inhibition at 10 µM: ≥ 50%
[3]
  inhibition at 3.3 µM: ≥ 50%
  inhibition at 10 µM: ≥ 50%
[4]
  inhibition at 3.3 µM: 30 to 50%
  inhibition at 10 µM: ≥ 50%
[5]
  inhibition at 10 µM: > 80%
